According to PMC10141620 (Viruses, 2023):
Read-outs that look alike come from different tables or passages of the source.

What was measured:
[1] = in vitro; conditions: human
[2] = in vitro; conditions: human; remark: listed apart in the source
[3] = system: NL4-3ΔEnv-NanoLuc/SARS-CoV-2 (USA-WA1/2020) pseudovirus; assay: microbe, parasite or virus in culture; assay type: cell-based
[4] = in vitro; conditions: human; remark: listed apart in the source
[5] = in vitro; conditions: human; remark: listed apart in the source
[6] = system: NL4-3ΔEnv-NanoLuc/MERS-CoV pseudovirus; assay: microbe, parasite or virus in culture; assay type: cell-based; conditions: Middle East respiratory syndrome-related coronavirus
[7] = system: NL4-3ΔEnvLuc/A-MLV pseudovirus; assay: microbe, parasite or virus in culture; assay type: cell-based, amphotropic murine leukemia virus (A-MLV); conditions: 293T/ACE2, read-out: A-MLV IC50
[8] = in vitro; conditions: human; remark: listed apart in the source
[9] = system: SARS-CoV-2 spike (Wuhan-Hu-1) mediated cell-to-cell fusion, Jurkat donor / 293T/ACE2 acceptor cells; assay: microbe, parasite or virus in culture; assay type: cell-based; conditions: for IC50: Severe acute respiratory syndrome coronavirus 2, 4 h, read-out: IC50, cell-to-cell fusion inhibition
[10] = system: NL4-3ΔEnv-NanoLuc/SARS-CoV-1 pseudovirus; assay: microbe, parasite or virus in culture; assay type: cell-based; conditions: Severe acute respiratory syndrome coronavirus
[11] = Caco-2, read-out: MERS-CoV IC50
[12] = Calu-3, read-out: MERS-CoV IC50
[13] = Calu-3, read-out: SARS-CoV-2 USA-WA1/2020 IC50
[14] = 293T/ACE2, read-out: SARS-CoV-1 IC50
[15] = A549-ACE2, read-out: SARS-CoV-1 IC50
[16] = Calu-3, read-out: SARS-CoV-1 IC50

Row | Compound | CC50 [1] [nM] | CC50 [2] [nM] | IC50 ([3]; Pseudovirus, 293T/ACE2) [nM] | IC50 ([3]; Pseudovirus, A549-ACE2) [nM] | further results
1 | Cc1ccc(-c2ccc(/C=c3/sc4nc5ccccc5n4c3=O)o2)cc1Cl [NBCoV79] | > 50000 | > 50000 | > 10000 | > 10000 | 
2 | O=C(O)c1cc(-c2ccc(/C=c3\sc4nc(=O)c5c6c(sc5n4c3=O)CCCC6)o2)ccc1Cl [NBCoV36] | > 50000 | 43000 ± 900 | 330 ± 18 | 227 ± 18 | CC50 [4]: > 50000 nM; CC50 [5]: > 50000 nM; IC50 [6, 11]: 428 ± 34 nM; IC50 [6, 12]: 589 ± 117 nM; IC50 ([6]; MRC5, read-out: MERS-CoV IC50): 837 ± 38 nM; IC50 [7]: 3300 ± 100 nM; IC50 [3, 13]: 433 ± 49 nM; CC50 [8]: > 50000 nM; IC50 [9]: 900 nM; IC50 [10, 14]: 660 ± 30 nM; IC50 [10, 15]: 147 ± 19 nM; IC50 [10, 16]: 627 ± 58 nM
3 | COc1cc(/C=c2/sc3nc4ccccc4n3c2=O)cc(I)c1OCC(=O)O [NBCoV72] | > 50000 | > 50000 | > 10000 | > 10000 | 
4 | O=c1/c(=C\c2ccc(-c3cccc(Cl)c3)o2)sc2nc3ccccc3n12 [NBCoV71] |  |  | > 10000 | > 10000 | 
5 | Cc1cc2nc3s/c(=C/c4ccc(-c5ccc(Cl)cc5)o4)c(=O)n3c2cc1C [NBCoV78] | > 50000 | > 50000 | > 10000 | 8100 ± 200 | 
6 | Cc1ccc2c(nc3s/c(=C\c4ccc(-c5ccccc5C(=O)O)o4)c(=O)n32)c1C [NBCoV68] | > 50000 | > 50000 | 3900 ± 100 | 2300 ± 70 | 
7 | Cc1cc2nc3s/c(=C\c4ccc(-c5ccc6c(c5)COC6=O)o4)c(=O)n3c2cc1C [NBCoV65] | > 50000 | > 50000 | > 10000 | > 10000 | 
8 | O=C(O)c1ccc(-c2ccc(/C=c3/sc4nc5ccccc5n4c3=O)o2)cc1 [NBCoV73] | > 50000 | > 50000 | > 10000 | > 10000 | 
9 | Cc1ccc2c(nc3s/c(=C/c4ccc(-c5ccc(C(=O)O)cc5)o4)c(=O)n32)c1C [NBCoV69] | > 50000 | > 50000 | 2550 ± 105 | 3000 ± 400 | 
10 | COc1cc(/C=c2/sc3nc4ccccc4n3c2=O)ccc1OCc1cccc(C(=O)O)c1 [NBCoV77] | > 50000 | > 50000 | > 10000 | > 10000 | 
11 | Cc1ccc2nc3s/c(=C/c4coc(-c5ccc(Cl)c(C(=O)O)c5)c4)c(=O)n3c2c1 [NBCoV35] | ~50000 | ~50000 | 198 ± 9 | 126 ± 3 | CC50 [4]: > 50000 nM; CC50 [5]: > 50000 nM; IC50 [6, 11]: 472 ± 43 nM; IC50 [6, 12]: 1670 ± 225 nM; IC50 ([6]; MRC5, read-out: MERS-CoV IC50): 715 ± 43 nM; IC50 [7]: 1820 ± 25 nM; IC50 [3, 13]: 360 ± 35 nM; IC50 ([3]; Pseudovirus, 293T/ACE2, read-out: IC50, range over both cell lines): 66 to 198 nM; CC50 [8]: > 50000 nM; IC50, cell-to-cell fusion inhibition ([9]; 4 h): the least active; IC50 [9]: 2800 nM; IC50 [10, 14]: 380 ± 69 nM; IC50 [10, 15]: 363 ± 11 nM; IC50 [10, 16]: 1250 ± 45 nM
